≈ marks a conversion by molar mass, not a printed value. Read-outs that look alike come from different tables or passages of the source. Non-standard residues stand in square brackets, D forms with d. Residues, ends and D or L forms follow the SMILES beside them. d2Nal = N[C@H](Cc1ccc2ccccc2c1)C(=O)O
What was measured:
[1] = tested on: K. pneumoniae strain ATCC BAA-2470 biofilm
Procedure: Bacteria. The bacterial strains employed in these assays were obtained from the American Type Culture Collection (ATCC). Each strain was propagated as recommended by the ATCC and each strain was stored as a frozen glycerol stock at −80° C.
Bacterial Propagation. […] Following the incubation, the culture was diluted to an optical density 625 nm (OD625) of 0.1 in cation adjusted Mueller Hinton Broth (CAMHB), which is equivalent to 1×10^8 CFU/mL. The culture was further diluted to 1×10^6 CFU/mL which was used for the assay.
Determination of the Temporal Effects of SPL7013 Addition to Inhibit Biofilm Formation. Each strain of bacteria was adjusted to a concentration of 1×10^6 CFU/mL and added to a 96-well flat-bottomed plate in a volume of 100 mL. One-hundred microliters (100 mL) of each compound at 10 concentrations was added in triplicate wells. The cultures were incubated for 24 hours at 37° C. under the appropriate growth conditions for each organism. Following the incubation, the media was removed, and the formed biofilms were fixed for 1 hour at 60° C. Two-hundred microliters (200 mL) of 0.06% crystal violet was added to the wells for 5 to 10 minutes and the wells were then gently washed three times with deionized H2O to remove the crystal violet. Following crystal violet staining 200 mL of 70% ethanol was added to the wells.

[2] = tested on: Enterococcus faecium ATCC 27270; details: for MIC: ATCC 27270
[3] = tested on: Enterococcus faecium ATCC 700221; details: for MIC: ATCC 700221
[4] = tested on: Staphylococcus aureus ATCC 29213
[5] = tested on: Klebsiella pneumoniae ATCC 13883
[6] = tested on: Enterococcus faecalis ATCC 29212; details: for MIC: ATCC 29212
[7] = tested on: Enterococcus faecalis ATCC 51575; details: for MIC: ATCC 51575
[8] = tested on: Streptococcus pneumoniae ATCC 49619; details: for MIC: ATCC 49619
[9] = tested on: Streptococcus pneumoniae ATCC 51938; details: for MIC: ATCC 51938
MRSA [10] = tested on: MRSA
[11] = tested on: Bacillus subtilis (ATCC-6633)
[12] = tested on: Bacillus cereus (ATCC-13061)
[13] = tested on: Escherichia coli (ATCC BAA-2452)
[14] = tested on: Acinetobacter baumannii (ATCC BAA-1605)
[15] = tested on: Pseudomonas aeruginosa (ATCC 10145)
[16] = tested on: Pseudomonas aeruginosa (ATCC BAA-1744)
[17] = tested on: Pseudomonas aeruginosa (PSA, ATCC 27883); test: Synergy checkerboard assay (FIC index); assay type: cell-based; details: Pseudomonas aeruginosa (ATCC 27883)
B. subtilis (ATCC-6633) = test: Broad-spectrum activity against Gram-Positive bacteria (MIC); assay type: cell-based; parameters: unit not given here
E. coli (ATCC BAA-2452) = test: Broad-spectrum activity against Gram-Negative bacteria (MIC); assay type: cell-based; details: Table 16, Gram-negative panel
B. cereus (ATCC-13061) = test: Broad-spectrum activity against Gram-Positive bacteria (MIC); assay type: cell-based; parameters: unit not given here
[18] = tested on: A. baumannii (ATCC BAA-1605); test: Broad-spectrum activity against Gram-Negative bacteria (MIC); assay type: cell-based; details: Table 16, Gram-negative panel
[19] = tested on: P. aeruginosa (ATCC 10145); test: as above; assay type: cell-based; details: Table 16, Gram-negative panel
[20] = tested on: P. aeruginosa (ATCC BAA-1744); test: as above; assay type: cell-based; details: Table 16, Gram-negative panel
[21] = tested on: Methicillin-resistant Staphylococcus aureus MRSA (ATCC BAA-1556)
[22] = tested on: Pseudomonas aeruginosa (ATCC 27883); details: P. aeruginosa ATCC 27883
[23] = tested on: Escherichia coli (ATCC 25922)
[24] = tested on: Klebsiella pneumoniae (ATCC BAA-1705); details: Table 16, Gram-negative panel
MRSA (ATCC BAA-1556) = details: for MIC of antibiotic: MRSA (ATCC BAA-1556), antibiotic alone
[25] = tested on: Klebsiella pneumoniae (KPC, ATCC BAA-1705); details: ATCC BAA-1705
[26] = tested on: Escherichia coli (E. Coli, ATCC 25922); details: for MIC of antibiotic: Escherichia coli (ATCC 25922), antibiotic alone
in vitro = details: human, fresh human red blood cells (washed), pH 7.4
MRSA [27] = test: In vivo Galleria Mellonella Assay (MRSA infection); details: MRSA-infected G. mellonella, after one week
[28] = tested on: Methicillin-resistant Staphylococcus aureus MRSA (ATCC BAA-1556); test: microbe, parasite or virus in culture; details: ATCCBAA1556|MRSA, 24 h, read-out: MRSA (ATCC BAA-1556) MIC, Table 31, [R5W4] (IFX-301), antibiotics alone and PHY-MIX (1:1 w/w)
[29] = tested on: Pseudomonas aeruginosa (PSA, ATCC 27883); test: microbe, parasite or virus in culture; details: ATCC27883, 24 h
[30] = tested on: Escherichia coli (E. Coli, ATCC 25922); test: microbe, parasite or virus in culture; details: ATCC25922, 24 h, read-out: Escherichia coli (ATCC 25922) MIC, Table 31, [R5W4] (IFX-301), antibiotics alone and PHY-MIX (1:1 w/w)

## CN(C)c1cc(NC(=O)CNC(C)(C)C)c(O)c2c1C[C@H]1C[C@H]3[C@H](N(C)C)C(O)=C(C(N)=O)C(=O)[C@@]3(O)C(O)=C1C2=O [Tigecycline, reference compound]
[1]; K. pneumoniae, two of the lowest concentrations, 0.2 mg/mL and 0.1 mg/mL
  change of biofilm formation: increase in biofilm formation

## N=C(N)NCCC[C@@H]1NC(=O)[C@H](CCCNC(=N)N)NC(=O)[C@H](CCCNC(=N)N)NC(=O)[C@H](CCCCN)NC(=O)[C@H](Cc2c[nH]c3ccccc23)NC(=O)[C@H](Cc2c[nH]c3ccccc23)NC(=O)[C@H](Cc2c[nH]c3ccccc23)NC(=O)[C@H](Cc2c[nH]c3ccccc23)NC(=O)[C@H](CCCNC(=N)N)NC(=O)[C@H](CCCNC(=N)N)NC1=O [[R5W4K] (IFX-315)] (cyclo(RRRRRWWWWK))
[2]
  MIC: 8 µg/mL (≈ 4.84 µM)
[3]
  MIC: 8 µg/mL (≈ 4.84 µM)
[4]
  MIC: 8 µg/mL (≈ 4.84 µM)
[5]; ATCC 13883
  MIC: 8 µg/mL (≈ 4.84 µM)
[6]
  MIC: 16 µg/mL (≈ 9.67 µM)
[7]
  MIC: 32 µg/mL (≈ 19.3 µM)
[8]
  MIC: 2 µg/mL (≈ 1.21 µM)
[9]
  MIC: 2 µg/mL (≈ 1.21 µM)
MRSA [10]
  MIC: 8 µg/mL (≈ 4.84 µM)
KPC
  MIC: 32 µg/mL (≈ 19.3 µM)
PSA
  MIC: 16 µg/mL (≈ 9.67 µM)
E. coli
  MIC: 16 µg/mL (≈ 9.67 µM)
[11]
  MIC: 8 µg/mL (≈ 4.84 µM)
[12]
  MIC: 16 µg/mL (≈ 9.67 µM)
[13]; ATCC BAA-2452
  MIC: 25 µg/mL (≈ 15.1 µM)
[14]; ATCC BAA-1605
  MIC: 32 µg/mL (≈ 19.3 µM)
[15]; ATCC 10145
  MIC: 32 µg/mL (≈ 19.3 µM)
[16]; ATCC BAA-1744
  MIC: 16 µg/mL (≈ 9.67 µM)

## c[Arg-Arg-arg-arg-naI-Trp-naI] [IFX-135]
[17]; Table 27, peptide alone
  IFX135 MIC: 32 µg/mL
B. subtilis (ATCC-6633)
  Broad-spectrum activity B. subtilis (ATCC-6633): 1.5
E. coli (ATCC BAA-2452)
  MIC E. coli (ATCC BAA-2452): 12.5 µg/mL
B. cereus (ATCC-13061)
  Broad-spectrum activity B. cereus (ATCC-13061): 6.2
[18]
  MIC A. baumannii (ATCC BAA-1605): 12.5 µg/mL
[19]
  MIC P. aeruginosa (ATCC 10145): 25 µg/mL
[20]
  MIC P. aeruginosa (ATCC BAA-1744): 12.5 µg/mL
[21]; MRSA ATCC BAA-1556
  MIC MRSA ATCC BAA-1556: 1.5 µg/mL
S. aureus ATCC 29213; S. aureus ATCC 29213
  MIC S. aureus ATCC 29213: 1.5 µg/mL
[22]
  MIC P. aeruginosa ATCC 27883: 32 µg/mL
[23]; E. coli ATCC 25922
  MIC E. coli ATCC 25922: 8 µg/mL
[24]
  MIC K. pneumonia (ATCC BAA-1705): 12.5 µg/mL
MRSA (ATCC BAA-1556); ATCC BAA-1556
  IFX135 MIC: 2 µg/mL
[25]
  IFX135 MIC: 16 µg/mL
[26]; ATCC 25922
  IFX135 MIC: 8 µg/mL
[2]
  MIC: 4 µg/mL
[2]; E. faecium ATCC 27270
  Broad-spectrum activity E. faecium (ATCC 27270): 3.1
[3]
  MIC: 4 µg/mL
[3]; E. faecium ATCC 700221
  Broad-spectrum activity E. faecium (ATCC 700221): 3.1
[4]
  MIC: 2 µg/mL
[5]; Table 16, Gram-negative panel
  MIC K. pneumonia (ATCC 13883): 50 µg/mL
[5]; Table 36, Klebsiella pneumonia (ATCC 13883)
  MIC: 64 µg/mL
[6]
  MIC: 8 µg/mL
[6]; E. faecalis ATCC 29212
  Broad-spectrum activity E. faecalis (ATCC 29212): 6.2
[7]
  MIC: 16 µg/mL
[7]; E. faecalis ATCC 51575
  Broad-spectrum activity E. faecalis (ATCC 51575): 12.5
[8]
  MIC: 16 µg/mL
[8]; S. pneumoniae ATCC 49619
  Broad-spectrum activity S. pneumoniae (ATCC 49619): 12.5
[9]
  MIC: 16 µg/mL
[9]; S. pneumoniae ATCC 51938
  Broad-spectrum activity S. pneumoniae (ATCC 51938): 12.5
MRSA [10]
  MIC: 2 µg/mL
KPC; Table 36, Klebsiella pneumoniae (ATCC BAA-1705)
  MIC: 16 µg/mL
PSA; Table 36, P. aeruginosa ATCC 27883
  MIC: 32 µg/mL
E. coli; Table 36, E. coli ATCC 25922
  MIC: 8 µg/mL
[11]
  MIC: 2 µg/mL
[12]
  MIC: 8 µg/mL
[13]; Table 36, Escherichia coli (ATCC BAA-2452)
  MIC: 16 µg/mL
[14]; Table 36, Acinetobacter baumannii (ATCC BAA-1605)
  MIC: 16 µg/mL
[15]; Table 36, Pseudomonas aeruginosa (ATCC 10145)
  MIC: 32 µg/mL
[16]; Table 36, Pseudomonas aeruginosa (ATCC BAA-1744)
  MIC: 16 µg/mL

## N=C(N)NCCC[C@@H]1NC(=O)[C@@H](CCCNC(=N)N)NC(=O)[C@H](CCCNC(=N)N)NC(=O)[C@@H](Cc2ccc3ccccc3c2)NC(=O)[C@@H](Cc2ccc3ccccc3c2)NC(=O)[C@H](Cc2c[nH]c3ccccc23)NC(=O)[C@@H](CCCNC(=N)N)NC1=O [IFX-111, c[Arg-arg-Arg-arg-Trp-naI-naI]] (cyclo(R[dR]R[dR]W[d2Nal][d2Nal]))
[21]; ATCC BAA-1556
  MIC MRSA ATCC BAA-1556: 1.5 µg/mL (≈ 1.24 µM)
S. aureus ATCC 29213; ATCC 29213
  MIC S. aureus ATCC 29213: 1.5 µg/mL (≈ 1.24 µM)
[22]
  MIC P. aeruginosa ATCC 27883: 12.5 µg/mL (≈ 10.4 µM)
[23]; ATCC 25922
  MIC E. coli ATCC 25922: 6.2 µg/mL (≈ 5.14 µM)
[1]; ATCC BAA-2470
  inhibition of biofilm formation: ≤ 23%
In vitro
  HC50 at 0.5 h: 205 µg/mL

## CN(C)[C@@H]1C(O)=C(C(N)=O)C(=O)[C@@]2(O)C(O)=C3C(=O)c4c(O)cccc4[C@@](C)(O)[C@H]3C[C@@H]12 [tetracycline, reference compound]
[17]; antibiotic alone
  MIC of antibiotic: 32 µg/mL
[17]; Table 26, antibiotic alone
  MIC of antibiotic: 32 µg/mL
[17]; Table 27, antibiotic alone
  antibiotic MIC: 32 µg/mL
MRSA [27]
  larvae killed: 56.3%
MRSA (ATCC BAA-1556)
  MIC of antibiotic: 0.25 µg/mL
MRSA (ATCC BAA-1556); Table 25
  MIC of antibiotic: 0.250 µg/mL
[26]
  MIC of antibiotic: 8 µg/mL
[26]; Table 25
  MIC of antibiotic: 8 µg/mL
[26]; Table 26
  MIC of antibiotic: 8 µg/mL
[28]
  MIC: 0.25 µg/mL (≈ 0.563 µM)
[29]; read-out: Pseudomonas aeruginosa (ATCC 27883) MIC, Table 29, [R6W4] (IFX-318), antibiotics alone and PHY-MIX (1:1 w/w)
  MIC: 32 µg/mL (≈ 72 µM)
[29]; read-out: Pseudomonas aeruginosa (ATCC 27883) MIC, Table 31, [R5W4] (IFX-301), antibiotics alone and PHY-MIX (1:1 w/w)
  MIC: 32 µg/mL (≈ 72 µM)
[30]
  MIC: 8 µg/mL (≈ 18 µM)
